This note sets out measurements from patent US11111220B2, “Propanamine derivatives for treating pain and pain related conditions” (ESTEVE PHARMACEUTICALS, S.A., priority 2017, dated 2021).

Test [1] concerns the target Human α2δ-1 Subunit of Cav2.2 Calcium Channel (Homo sapiens, UniProt P54289). The test can be described thus: Binding assay to human α2δ-1 subunit of Cav2.2 calcium channel ([3H]-Gabapentin). Particulars: human α2δ-1 enriched membranes, 15 nM [3H]-Gabapentin, read-out: Ki(nM) alpha2delta Hum. As to the method: Binding Assay to Human α2δ-1 Subunit of Cav2.2 Calcium Channel.
Human α2δ-1 enriched membranes (2.5 μg) were incubated with 15 nM of radiolabeled [3H]-Gabapentin in assay buffer containing Hepes-KOH 10 mM, pH 7.4.
NSB (non specific binding) was measured by adding 10 μM pregabalin. The binding of the test compound was measured in five different concentrations. After 60 min incubation at 27° C., binding reaction was terminated by filtering through Multiscreen GF/C (Millipore) presoaked in 0.5% polyethyleneimine in Vacuum Manifold Station, followed by 3 washes with ice-cold filtration buffer containing 50 mM Tris-HCl, pH 7.4.
(§1) Filter plates were dried at 60° C. for 1 hour and 30 μl of scintillation cocktail were added to each well before radioactivity reading.
(§2) Readings were performed in a Trilux 1450 Microbeta radioactive counter (Perkin Elmer).

For test [2], the target named is Human Norepinephrine Transporter (NET) (Homo sapiens, UniProt P23975). Description: Binding assay to human norepinephrine transporter (NET) ([3H]-Nisoxetin). Particulars: Table 2 (dual compounds); human NET enriched membranes, 5 nM [3H]-Nisoxetin; read-out: Ki(nM) NET Hum. As to the method: Binding Assay to Human Norepinephrine Transporter (NET).
Human norepinephrine transporter (NET) enriched membranes (5 μg) were incubated with 5 nM of radiolabeled [3H]-Nisoxetin in assay buffer containing 50 mM Tris-HCl, 120 mM NaCl, 5 mM KCl, pH 7.4.
NSB (non specific binding) was measured by adding 10 μM desipramine. The binding of the test compound was measured in five different concentrations. After 60 min incubation at 4° C., binding reaction was terminated by filtering through Multiscreen GF/C (Millipore) presoaked in 0.5% polyethyleneimine in Vacuum Manifold Station, followed by 3 washes with ice-cold filtration buffer containing 50 mM Tris-HCl, 0.9% NaCl, pH 7.4.
as §1, §2

Like-named read-outs stand apart in the source and are kept apart here.

Chain of Human α2δ-1 Subunit of Cav2.2 Calcium Channel (P54289 25-1103): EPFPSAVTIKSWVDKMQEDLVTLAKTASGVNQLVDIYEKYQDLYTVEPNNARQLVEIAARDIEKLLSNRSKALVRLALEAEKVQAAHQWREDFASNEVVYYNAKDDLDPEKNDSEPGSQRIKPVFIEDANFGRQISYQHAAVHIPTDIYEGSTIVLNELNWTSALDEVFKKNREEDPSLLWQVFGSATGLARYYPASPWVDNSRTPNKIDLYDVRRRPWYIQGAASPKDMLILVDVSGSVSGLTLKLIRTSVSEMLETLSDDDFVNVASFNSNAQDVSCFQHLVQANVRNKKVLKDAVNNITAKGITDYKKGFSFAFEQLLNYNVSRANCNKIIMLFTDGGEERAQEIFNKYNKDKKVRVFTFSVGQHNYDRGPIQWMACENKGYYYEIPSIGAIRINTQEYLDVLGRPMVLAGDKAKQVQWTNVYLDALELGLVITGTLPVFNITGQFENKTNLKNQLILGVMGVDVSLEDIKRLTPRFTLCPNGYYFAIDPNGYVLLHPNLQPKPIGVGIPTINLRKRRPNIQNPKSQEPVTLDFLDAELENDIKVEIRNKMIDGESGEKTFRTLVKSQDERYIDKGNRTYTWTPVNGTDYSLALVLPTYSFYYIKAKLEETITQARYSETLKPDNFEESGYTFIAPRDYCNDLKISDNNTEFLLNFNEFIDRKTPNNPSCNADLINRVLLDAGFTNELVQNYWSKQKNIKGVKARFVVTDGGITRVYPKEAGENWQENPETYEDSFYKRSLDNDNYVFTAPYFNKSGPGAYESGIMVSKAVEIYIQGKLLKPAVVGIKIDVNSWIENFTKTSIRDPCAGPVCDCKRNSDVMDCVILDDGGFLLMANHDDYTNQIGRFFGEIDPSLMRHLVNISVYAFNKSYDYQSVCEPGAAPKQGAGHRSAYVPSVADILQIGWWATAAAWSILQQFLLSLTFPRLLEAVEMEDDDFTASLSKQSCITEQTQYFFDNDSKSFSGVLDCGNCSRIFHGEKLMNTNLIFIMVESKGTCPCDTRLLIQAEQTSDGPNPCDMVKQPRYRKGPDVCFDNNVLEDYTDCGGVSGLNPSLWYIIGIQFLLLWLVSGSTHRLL
Chain of Human Norepinephrine Transporter (NET) (P23975 whole entry): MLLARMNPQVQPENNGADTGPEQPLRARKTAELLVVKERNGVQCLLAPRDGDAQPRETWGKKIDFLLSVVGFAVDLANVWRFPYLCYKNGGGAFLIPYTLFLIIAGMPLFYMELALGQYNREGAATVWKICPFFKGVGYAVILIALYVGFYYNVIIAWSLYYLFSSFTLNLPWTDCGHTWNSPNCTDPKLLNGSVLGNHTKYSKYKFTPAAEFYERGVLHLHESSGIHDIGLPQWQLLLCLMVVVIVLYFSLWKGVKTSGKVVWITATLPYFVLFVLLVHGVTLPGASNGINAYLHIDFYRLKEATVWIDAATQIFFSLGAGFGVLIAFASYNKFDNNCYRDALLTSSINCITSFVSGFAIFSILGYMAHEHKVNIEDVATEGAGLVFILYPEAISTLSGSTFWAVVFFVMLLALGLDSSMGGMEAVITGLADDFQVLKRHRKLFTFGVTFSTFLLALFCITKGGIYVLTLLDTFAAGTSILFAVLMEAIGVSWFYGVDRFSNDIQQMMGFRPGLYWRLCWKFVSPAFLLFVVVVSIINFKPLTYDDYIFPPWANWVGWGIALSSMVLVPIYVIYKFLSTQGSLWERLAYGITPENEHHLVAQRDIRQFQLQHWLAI

Consider `CNCCC(Oc1ccc(CNCc2ccccc2)c(F)c1)c1cccs1` (stereo not drawn) [Example 71, 3-(4-((Benzylamino)methyl)-3-fluorophenoxy)-N-methyl-3-(thiophen-2-yl)propan-1-amine], for which the figures for the Ki in test [1] (Table 1), in test [1] (Table 2 (dual compounds)) and in test [2] were not below 3000 nM, not below 3000 nM and less than 100 nM, respectively.
